Data from ChEMBL document CHEMBL1201862, “PubChem BioAssay data set” (2004).
Activity calls are given as the source filed them.

Assays:
[1] = target: T1, Alkaline phosphatase, tissue-nonspecific isozyme (Homo sapiens, UniProt P05186); test: inhibition of tissue-nonspecific alkaline phosphatase – biochemical, dose response (AID 488882); format: functional
T1 sequence (P05186 whole entry): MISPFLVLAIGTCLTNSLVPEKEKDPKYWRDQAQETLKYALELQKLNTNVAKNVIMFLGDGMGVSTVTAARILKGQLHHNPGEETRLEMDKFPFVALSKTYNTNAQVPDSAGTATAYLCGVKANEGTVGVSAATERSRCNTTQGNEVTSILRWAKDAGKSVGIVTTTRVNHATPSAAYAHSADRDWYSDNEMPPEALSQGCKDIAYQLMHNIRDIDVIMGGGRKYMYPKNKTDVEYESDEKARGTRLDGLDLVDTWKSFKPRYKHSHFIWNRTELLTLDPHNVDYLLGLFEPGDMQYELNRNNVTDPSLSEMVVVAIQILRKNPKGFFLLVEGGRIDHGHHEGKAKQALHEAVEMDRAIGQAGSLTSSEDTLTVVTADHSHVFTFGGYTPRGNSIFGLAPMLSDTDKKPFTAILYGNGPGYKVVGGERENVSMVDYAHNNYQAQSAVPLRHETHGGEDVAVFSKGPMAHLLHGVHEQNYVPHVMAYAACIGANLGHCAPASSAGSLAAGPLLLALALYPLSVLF

[2] = target: ORF 73 (Human herpesvirus 8, UniProt O40947); test: KSHV LANA DNA-binding disruption – biochemical, fluorescence polarization, cherry-picked samples, dose response (AID 504725); set-up: species or system Human gammaherpesvirus 8;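 further: fluorescence polarization of a labeled DNA duplex reporting LANA DNA binding; potency is for inhibitors that block LANA binding to the DNA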
[3] = test system: HEK293; test: membrane integrity loss in HEK cells – cell-based, fluorescence, cytotoxicity control for IDE activator project, dose response (AID 588440); format: functional; conditions: Homo sapiens;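 further: cytotoxicity by LDH release measuring loss of membrane integrity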
[4] = target: Beta-lactamase (Salmonella choleraesuis (strain SC-B67), UniProt Q5J463)
[5] = target: T2, Intestinal-type alkaline phosphatase (Homo sapiens, UniProt P09923); test: inhibition of human intestinal alkaline phosphatase – biochemical, luminescent, uHTS hits, set 2, dose response (AID 488793); format: functional
[6] = target: Beta-lactamase (Pseudomonas aeruginosa, UniProt Q79MP6);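 further: biochemical dose-response test of metallo-beta-lactamase enzyme inhibition, read out by epi-absorbance; purified recombinant IMP-1 metallo-beta-lactamase with nitrocefin as substrate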
[7] = test system: HEK293; test: optical interference in Abeta FP readout, dose response, artefact control for IDE activator project, biochemical, fluorescence polarization (AID 588442); format: functional, cell-based; conditions: Homo sapiens
[8] = target: T3, Insulin-degrading enzyme (Homo sapiens, UniProt P14735); test: recombinant IDE activation, cell-free – biochemical, fluorescence polarization, counter-screen for IDE activator project, dose response (AID 588681)
T3 sequence (P14735 whole entry): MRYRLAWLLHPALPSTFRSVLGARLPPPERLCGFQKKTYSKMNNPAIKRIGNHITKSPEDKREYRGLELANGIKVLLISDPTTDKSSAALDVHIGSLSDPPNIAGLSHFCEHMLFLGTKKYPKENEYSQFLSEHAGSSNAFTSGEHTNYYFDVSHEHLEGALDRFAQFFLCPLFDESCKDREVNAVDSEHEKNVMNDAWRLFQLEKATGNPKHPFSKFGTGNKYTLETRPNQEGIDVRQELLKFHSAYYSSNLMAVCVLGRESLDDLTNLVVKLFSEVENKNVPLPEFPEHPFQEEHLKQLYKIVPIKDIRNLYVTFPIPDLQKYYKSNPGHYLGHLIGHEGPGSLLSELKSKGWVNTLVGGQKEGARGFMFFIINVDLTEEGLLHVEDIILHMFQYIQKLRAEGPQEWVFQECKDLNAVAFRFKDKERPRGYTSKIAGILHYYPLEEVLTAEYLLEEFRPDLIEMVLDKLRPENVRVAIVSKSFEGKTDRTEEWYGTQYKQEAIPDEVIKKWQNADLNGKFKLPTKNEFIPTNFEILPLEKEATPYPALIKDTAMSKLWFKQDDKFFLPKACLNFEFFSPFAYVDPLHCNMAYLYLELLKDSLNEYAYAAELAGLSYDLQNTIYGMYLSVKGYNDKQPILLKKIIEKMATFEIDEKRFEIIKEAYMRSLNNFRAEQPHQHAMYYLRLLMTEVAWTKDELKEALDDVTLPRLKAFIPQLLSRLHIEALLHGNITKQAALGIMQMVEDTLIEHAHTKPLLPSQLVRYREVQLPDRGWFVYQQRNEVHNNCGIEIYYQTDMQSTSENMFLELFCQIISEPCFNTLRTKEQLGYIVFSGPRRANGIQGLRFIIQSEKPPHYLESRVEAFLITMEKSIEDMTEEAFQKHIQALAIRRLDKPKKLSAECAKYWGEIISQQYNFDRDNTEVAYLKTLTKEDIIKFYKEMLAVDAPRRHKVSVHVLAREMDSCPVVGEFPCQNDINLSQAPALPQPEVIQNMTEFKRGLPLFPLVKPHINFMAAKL

[9] = target: Intestinal-type alkaline phosphatase (Mus musculus, UniProt P24822); test: PubChem AID 488874; format: functional
[10] = target: T2, Intestinal-type alkaline phosphatase; test: Dose Response confirmation of uHTS hits from a small molecule inhibitors of human intestinal alkaline phosphatase via a luminescent assay. [Related pubchem assays (depositor defined):AID2544, AID2574]; format: functional
[11] = target: T3, Insulin-degrading enzyme; test: cellular IDE activation of Abeta substrate cleavage – fluorescence polarization, HEK cells, dose response (AID 588439); format: functional, cell-based
[12] = target: T4, Orexin/Hypocretin receptor type 1 (Homo sapiens, UniProt O43613); test: (§1) Fluorescence-based cell-based high throughput dose response assay for antagonists of the orexin 1 receptor (OX1R; HCRTR1). [Related pubchem assays (depositor defined):AID434989, AID435008, AID463079, AID485270, AID492963, AID492964, AID492965, AID493232, AID504717, AID504718]; format: functional
[13] = target: T5, RNA-binding protein pos-1 (Caenorhabditis elegans, UniProt G5EF15); test: disruptors of C. elegans POS-1 RNA interaction – biochemical, fluorescence polarization, dose response (AID 1964);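 further: purified POS-1 fused to maltose binding protein made in E. coli; potency of compounds blocking POS-1 binding to fluorescent RNA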
T5 sequence (G5EF15 whole entry): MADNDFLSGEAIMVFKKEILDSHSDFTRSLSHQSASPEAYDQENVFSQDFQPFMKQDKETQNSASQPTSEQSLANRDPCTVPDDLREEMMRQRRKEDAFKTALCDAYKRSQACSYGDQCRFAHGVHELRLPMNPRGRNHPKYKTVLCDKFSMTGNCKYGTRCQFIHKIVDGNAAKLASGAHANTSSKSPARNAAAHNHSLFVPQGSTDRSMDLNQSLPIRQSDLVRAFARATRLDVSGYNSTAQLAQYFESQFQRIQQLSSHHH

[14] = target: T6, Orexin receptor type 2 (Homo sapiens, UniProt O43614); test: Counterscreen assay for antagonists of the orexin 1 receptor (OX1R; HCRTR1): Fluorescence-based cell-based dose response assay for antagonists of the orexin 2 receptor (OX2R; HCRTR2), run by assay provider.; format: functional
[15] = target: T4, Orexin/Hypocretin receptor type 1; test: as §1, with “Homogeneous Time Resolved Fluorescence (HTRF)-based” for “Fluorescence-based”; format: functional
[16] = target: T7, Zinc finger protein mex-5 (Caenorhabditis elegans, UniProt Q9XUB2); test: potency of MEX-5 RNA-binding blockers – biochemical, C. elegans, fluorescence polarization, dose response (AID 1960)
T7 sequence (Q9XUB2 whole entry): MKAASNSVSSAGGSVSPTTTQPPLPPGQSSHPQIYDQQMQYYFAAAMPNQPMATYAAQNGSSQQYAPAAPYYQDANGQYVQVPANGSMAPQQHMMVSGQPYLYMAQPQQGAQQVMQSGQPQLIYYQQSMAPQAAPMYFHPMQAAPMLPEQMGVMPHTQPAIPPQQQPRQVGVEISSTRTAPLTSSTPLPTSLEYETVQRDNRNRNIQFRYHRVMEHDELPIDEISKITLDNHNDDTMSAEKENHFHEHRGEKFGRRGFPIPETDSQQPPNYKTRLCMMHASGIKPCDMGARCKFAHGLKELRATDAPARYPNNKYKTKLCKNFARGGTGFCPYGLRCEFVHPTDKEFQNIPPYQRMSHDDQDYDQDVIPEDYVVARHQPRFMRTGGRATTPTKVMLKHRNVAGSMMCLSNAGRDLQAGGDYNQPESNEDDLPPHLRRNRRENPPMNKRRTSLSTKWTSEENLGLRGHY

[17] = (§2) Counterscreen for antagonists of the orexin 1 receptor (OX1R; HCRTR1): Fluorescence-based cell-based high throughput dose response assay to identify antagonists of the parental CHO cell line. [Related pubchem assays (depositor defined):AID434989, AID435008, AID463079, AID485270, AID492963, AID492964, AID492965, AID493232, AID504699, AID504701]; format: functional
[18] = target: T6, Orexin receptor type 2; test: Counterscreen assay for antagonists of the orexin 1 receptor (OX1R; HCRTR1): Homogeneous Time Resolved Fluorescence (HTRF)-based cell-based dose response assay for antagonists of the orexin 2 receptor (OX2R; HCRTR2), run by assay provider.; format: functional
[19] = test system: CHO-K1; test: as §2, with “Homogeneous time resolved fluorescence (HTRF)-based” for “Fluorescence-based”, “cell-based” for “cell-based high throughput”, “CHO-K1” for “CHO”; format: functional; conditions: Cricetulus griseus;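 further: potency for inhibition of ATP-stimulated IP1 production as antagonists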
[20] = target: Sphingosine 1-phosphate receptor 2 (Homo sapiens, UniProt O95136); test: Late-stage fluorescence-based dose-response cell-based counterscreen assay to identify agonists of the Sphingosine 1-Phosphate Receptor 3 (S1P3): Sphingosine 1-Phosphate Receptor 2 (S1P2) agonist assay.; format: functional
[21] = target: T8, Sphingosine 1-phosphate receptor 4 (Homo sapiens, UniProt O95977); test: Late-stage fluorescence-based dose-response cell-based counterscreen assay to identify agonists of the Sphingosine 1-Phosphate Receptor 3 (S1P3): Sphingosine 1-Phosphate Receptor 4 (S1P4) agonist assay.; format: functional
T8 sequence (O95977 whole entry): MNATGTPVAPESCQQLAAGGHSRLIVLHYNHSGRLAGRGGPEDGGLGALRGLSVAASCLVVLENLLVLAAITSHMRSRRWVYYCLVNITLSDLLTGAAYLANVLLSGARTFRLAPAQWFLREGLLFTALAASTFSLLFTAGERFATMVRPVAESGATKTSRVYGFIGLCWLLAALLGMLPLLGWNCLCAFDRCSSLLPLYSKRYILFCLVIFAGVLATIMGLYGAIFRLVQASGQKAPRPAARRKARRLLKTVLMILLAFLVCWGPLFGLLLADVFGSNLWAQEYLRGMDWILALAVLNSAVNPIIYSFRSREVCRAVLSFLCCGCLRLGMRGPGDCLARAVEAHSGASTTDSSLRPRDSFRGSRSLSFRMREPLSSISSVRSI

[22] = target: T9, Apoptotic protease-activating factor 1 (Homo sapiens, UniProt O14727); test: SAR analysis of small molecule inhibitors of Apaf-1 in a Fluorescent assay.; format: functional; conditions: read-out: IC50_Mean
T9 sequence (O14727 whole entry): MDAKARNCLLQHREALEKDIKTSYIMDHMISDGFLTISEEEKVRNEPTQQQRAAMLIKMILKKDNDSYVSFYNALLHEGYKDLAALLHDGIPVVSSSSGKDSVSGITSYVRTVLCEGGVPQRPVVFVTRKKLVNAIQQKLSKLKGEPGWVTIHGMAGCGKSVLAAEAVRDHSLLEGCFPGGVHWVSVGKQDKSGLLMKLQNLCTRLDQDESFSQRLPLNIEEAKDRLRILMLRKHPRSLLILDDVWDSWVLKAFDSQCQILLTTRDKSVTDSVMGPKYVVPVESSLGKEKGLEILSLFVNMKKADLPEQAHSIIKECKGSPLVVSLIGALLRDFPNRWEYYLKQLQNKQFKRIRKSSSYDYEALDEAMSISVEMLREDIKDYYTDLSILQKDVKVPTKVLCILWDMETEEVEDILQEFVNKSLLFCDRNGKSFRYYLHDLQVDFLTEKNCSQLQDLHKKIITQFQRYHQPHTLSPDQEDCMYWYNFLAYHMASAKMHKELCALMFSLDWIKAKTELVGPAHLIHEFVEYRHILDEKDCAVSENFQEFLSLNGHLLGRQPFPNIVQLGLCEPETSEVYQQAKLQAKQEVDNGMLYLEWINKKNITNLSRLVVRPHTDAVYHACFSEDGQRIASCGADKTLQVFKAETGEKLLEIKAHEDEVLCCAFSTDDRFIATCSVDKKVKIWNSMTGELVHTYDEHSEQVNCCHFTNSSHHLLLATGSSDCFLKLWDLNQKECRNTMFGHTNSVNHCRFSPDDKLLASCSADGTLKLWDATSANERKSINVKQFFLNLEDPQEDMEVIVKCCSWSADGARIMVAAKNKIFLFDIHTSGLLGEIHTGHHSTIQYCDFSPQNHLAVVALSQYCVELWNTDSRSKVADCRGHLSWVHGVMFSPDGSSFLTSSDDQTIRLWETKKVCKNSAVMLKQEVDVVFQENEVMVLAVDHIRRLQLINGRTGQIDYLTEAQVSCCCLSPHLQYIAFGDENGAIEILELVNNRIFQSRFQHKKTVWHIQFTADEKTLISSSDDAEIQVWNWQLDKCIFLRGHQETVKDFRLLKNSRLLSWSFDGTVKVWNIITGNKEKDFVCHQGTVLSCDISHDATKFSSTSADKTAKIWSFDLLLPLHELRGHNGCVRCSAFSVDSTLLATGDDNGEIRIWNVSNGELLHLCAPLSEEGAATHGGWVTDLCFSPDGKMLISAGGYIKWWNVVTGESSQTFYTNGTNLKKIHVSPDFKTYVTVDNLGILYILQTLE

T2 sequence (P09923 whole entry): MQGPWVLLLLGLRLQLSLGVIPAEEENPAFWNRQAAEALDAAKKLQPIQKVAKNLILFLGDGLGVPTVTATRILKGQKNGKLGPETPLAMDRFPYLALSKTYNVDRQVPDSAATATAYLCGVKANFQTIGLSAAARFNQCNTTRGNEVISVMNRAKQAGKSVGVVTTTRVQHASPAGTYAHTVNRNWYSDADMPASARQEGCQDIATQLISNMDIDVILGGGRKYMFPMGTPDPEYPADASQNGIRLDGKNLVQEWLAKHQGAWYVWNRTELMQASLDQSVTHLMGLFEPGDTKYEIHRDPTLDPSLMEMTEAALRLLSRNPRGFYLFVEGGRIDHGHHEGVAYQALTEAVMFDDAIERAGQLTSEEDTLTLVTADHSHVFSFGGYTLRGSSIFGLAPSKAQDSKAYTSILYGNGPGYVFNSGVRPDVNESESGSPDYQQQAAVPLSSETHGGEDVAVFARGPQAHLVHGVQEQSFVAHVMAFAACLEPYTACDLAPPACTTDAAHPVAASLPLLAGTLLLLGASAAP
T4 sequence (O43613 whole entry, the tested form may be a part): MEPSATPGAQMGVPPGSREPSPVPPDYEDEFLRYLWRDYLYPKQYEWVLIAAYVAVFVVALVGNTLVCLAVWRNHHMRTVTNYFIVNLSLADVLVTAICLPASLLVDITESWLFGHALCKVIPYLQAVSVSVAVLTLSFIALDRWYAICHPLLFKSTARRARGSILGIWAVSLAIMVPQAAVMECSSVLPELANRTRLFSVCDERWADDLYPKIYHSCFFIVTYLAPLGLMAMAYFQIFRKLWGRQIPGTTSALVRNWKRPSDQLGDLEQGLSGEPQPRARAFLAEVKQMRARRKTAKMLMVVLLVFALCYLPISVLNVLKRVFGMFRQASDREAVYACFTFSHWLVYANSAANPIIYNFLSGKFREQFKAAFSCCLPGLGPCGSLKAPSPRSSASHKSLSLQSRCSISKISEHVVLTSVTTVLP
T6 sequence (O43614 whole entry): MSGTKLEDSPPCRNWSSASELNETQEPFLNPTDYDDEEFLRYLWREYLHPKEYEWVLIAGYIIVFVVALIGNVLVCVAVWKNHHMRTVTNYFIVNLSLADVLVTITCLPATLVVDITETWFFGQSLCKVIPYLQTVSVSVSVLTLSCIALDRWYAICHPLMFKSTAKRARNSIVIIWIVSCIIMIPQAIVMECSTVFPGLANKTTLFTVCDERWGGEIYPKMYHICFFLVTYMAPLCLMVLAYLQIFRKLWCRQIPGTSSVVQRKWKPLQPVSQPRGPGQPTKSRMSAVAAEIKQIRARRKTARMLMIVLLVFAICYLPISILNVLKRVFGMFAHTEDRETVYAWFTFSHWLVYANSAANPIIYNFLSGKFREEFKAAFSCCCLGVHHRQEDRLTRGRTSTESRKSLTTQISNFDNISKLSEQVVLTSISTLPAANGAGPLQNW
Sequence of Sphingosine 1-phosphate receptor 2 (O95136 whole entry): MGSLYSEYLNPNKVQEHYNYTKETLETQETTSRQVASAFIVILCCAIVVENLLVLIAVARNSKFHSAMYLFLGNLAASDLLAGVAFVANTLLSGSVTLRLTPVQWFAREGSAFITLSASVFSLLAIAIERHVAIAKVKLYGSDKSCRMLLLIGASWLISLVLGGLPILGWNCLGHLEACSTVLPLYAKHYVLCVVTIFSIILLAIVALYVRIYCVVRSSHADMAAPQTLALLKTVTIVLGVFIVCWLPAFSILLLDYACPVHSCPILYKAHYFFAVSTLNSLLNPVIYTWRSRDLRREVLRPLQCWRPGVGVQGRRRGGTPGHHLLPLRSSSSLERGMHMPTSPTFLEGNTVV
Sequence of ORF 73 (O40947 whole entry): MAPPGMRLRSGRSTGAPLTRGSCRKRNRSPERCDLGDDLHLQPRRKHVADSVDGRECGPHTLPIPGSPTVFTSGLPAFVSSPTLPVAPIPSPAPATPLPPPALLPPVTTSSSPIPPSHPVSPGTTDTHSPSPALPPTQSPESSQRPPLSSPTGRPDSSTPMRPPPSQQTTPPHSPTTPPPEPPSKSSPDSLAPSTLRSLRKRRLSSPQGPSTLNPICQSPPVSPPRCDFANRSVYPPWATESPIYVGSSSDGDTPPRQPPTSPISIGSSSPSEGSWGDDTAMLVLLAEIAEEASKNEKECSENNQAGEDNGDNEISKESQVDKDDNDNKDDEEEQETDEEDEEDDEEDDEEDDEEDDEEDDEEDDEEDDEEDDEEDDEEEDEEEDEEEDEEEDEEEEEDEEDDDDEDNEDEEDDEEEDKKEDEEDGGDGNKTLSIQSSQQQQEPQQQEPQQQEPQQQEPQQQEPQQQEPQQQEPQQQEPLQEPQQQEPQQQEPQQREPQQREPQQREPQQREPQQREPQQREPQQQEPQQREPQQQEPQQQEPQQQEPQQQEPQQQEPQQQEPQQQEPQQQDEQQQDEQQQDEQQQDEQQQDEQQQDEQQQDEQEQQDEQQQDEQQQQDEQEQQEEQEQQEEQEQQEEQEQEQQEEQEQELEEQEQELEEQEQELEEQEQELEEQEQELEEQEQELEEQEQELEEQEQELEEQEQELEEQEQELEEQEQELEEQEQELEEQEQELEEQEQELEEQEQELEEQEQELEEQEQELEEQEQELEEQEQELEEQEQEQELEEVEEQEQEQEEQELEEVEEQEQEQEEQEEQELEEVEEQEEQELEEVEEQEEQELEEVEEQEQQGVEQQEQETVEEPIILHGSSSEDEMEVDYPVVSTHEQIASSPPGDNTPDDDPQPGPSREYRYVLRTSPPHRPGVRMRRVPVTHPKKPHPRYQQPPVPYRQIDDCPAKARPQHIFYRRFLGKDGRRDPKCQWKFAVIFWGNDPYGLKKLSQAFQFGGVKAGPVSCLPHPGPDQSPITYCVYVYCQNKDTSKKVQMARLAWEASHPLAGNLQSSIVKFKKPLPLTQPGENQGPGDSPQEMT
Sequence of Intestinal-type alkaline phosphatase (Mus musculus, UniProt P24822) (P24822 whole entry): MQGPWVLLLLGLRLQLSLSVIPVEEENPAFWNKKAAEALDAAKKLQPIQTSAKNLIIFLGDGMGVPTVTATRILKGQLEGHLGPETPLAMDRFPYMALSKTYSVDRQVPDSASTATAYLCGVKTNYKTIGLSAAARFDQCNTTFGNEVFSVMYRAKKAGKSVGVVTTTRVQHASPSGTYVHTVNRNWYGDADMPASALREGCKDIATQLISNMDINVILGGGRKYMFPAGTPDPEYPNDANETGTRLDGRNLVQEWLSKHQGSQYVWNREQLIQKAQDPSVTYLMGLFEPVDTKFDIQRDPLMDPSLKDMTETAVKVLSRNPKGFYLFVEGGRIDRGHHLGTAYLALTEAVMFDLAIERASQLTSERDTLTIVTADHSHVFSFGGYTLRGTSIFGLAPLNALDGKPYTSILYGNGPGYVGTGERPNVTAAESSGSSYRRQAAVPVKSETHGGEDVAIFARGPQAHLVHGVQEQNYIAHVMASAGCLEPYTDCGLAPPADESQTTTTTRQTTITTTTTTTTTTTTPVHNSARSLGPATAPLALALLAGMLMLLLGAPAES
Sequence of Beta-lactamase (Salmonella choleraesuis (strain SC-B67), UniProt Q5J463) (Q5J463 whole entry): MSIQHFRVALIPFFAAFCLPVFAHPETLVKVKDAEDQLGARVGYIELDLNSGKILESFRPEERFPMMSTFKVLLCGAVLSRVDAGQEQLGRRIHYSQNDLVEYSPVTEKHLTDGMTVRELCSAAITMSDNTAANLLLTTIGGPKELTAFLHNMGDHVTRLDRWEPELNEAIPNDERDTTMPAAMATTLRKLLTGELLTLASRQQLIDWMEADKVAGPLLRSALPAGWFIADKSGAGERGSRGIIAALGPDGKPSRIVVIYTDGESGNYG
Sequence of Beta-lactamase (Pseudomonas aeruginosa, UniProt Q79MP6) (Q79MP6 whole entry): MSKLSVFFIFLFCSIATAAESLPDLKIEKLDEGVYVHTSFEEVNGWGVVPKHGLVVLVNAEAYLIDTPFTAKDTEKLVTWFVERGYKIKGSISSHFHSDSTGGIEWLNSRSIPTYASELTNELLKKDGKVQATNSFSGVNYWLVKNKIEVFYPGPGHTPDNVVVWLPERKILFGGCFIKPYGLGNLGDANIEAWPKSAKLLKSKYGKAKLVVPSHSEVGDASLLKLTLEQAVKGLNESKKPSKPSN

## Nc1ccc(-c2c3ccc(=O)cc-3oc3cc(O)ccc23)cc1C(=O)O
[1]
  IC50: 34 µM (active)
[2]
  AC50: 0.532 µM (active)
[3]
  IC50: > 89.2 µM (inactive)
[4]
  IC50: 3.41 µM (active)
[5]
  IC50: 28.1 µM (active)
[6]
  IC50: 8.62 µM (active)
[7]
  EC50: > 54.7 µM (inactive)
[8]
  EC50: > 54.7 µM (inactive)
[9]
  IC50: 20.3 µM (active)
[10]
  IC50: 14.5 µM (inactive)
[11]
  EC50: > 54.7 µM (inactive)

## Nc1c(C(=O)c2ccc(Br)s2)oc2ccccc12
[12]
  IC50: 15.7 µM (inactive)
[13]
  EC50: 71.8 µM (active)
[14]
  IC50: 30.7 µM (inactive)
[15]
  IC50: 6.69 µM (active)
[16]
  EC50: 106 µM (active)
[17]
  IC50: > 49.8 µM (inactive)
[18]
  IC50: > 50 µM (inactive)
[19]
  IC50: > 66.2 µM (inactive)

## CC1CCCCC1N(C(=O)c1cc(C2CC2)on1)C1CCOCC1 (configuration not stated)
[20]
  EC50: > 50 µM (inactive)
[21]
  EC50: > 50 µM (inactive)

## Cc1ccc2c(c1)C(=O)c1nc3ccccc3c(=O)n1-2
[22]
  IC50: > 100 µM (inactive)
